Measurements: ChEMBL document CHEMBL1777804, “Part 3: Design and synthesis of proline-derived α2δ ligands” (Bioorg Med Chem Lett, 2011)

Tests used:
[1] = Half life in rat; assay type: ADME, organism-based; conditions: in vivo
[2] = Plasma protein binding in rat; assay type: ADME, cell-free; conditions: read-out: PPB (converted)
[3] = species on record: Rattus norvegicus; assay: Unbound clearance in rat urine; assay type: ADME, organism-based; conditions: in vivo
[4] = Dissociation constant, pKa of the compound; assay type: physicochemical
[5] = Displacement of [3H]gabapentin from Voltage-dependent calcium channel subunit alpha-2/delta in pig cerebral cortex; assay type: tissue-based, Sus scrofa
[6] = Oral bioavailability in rat; assay type: ADME, organism-based; conditions: in vivo
[7] = Ratio of drug level in CSF to plasma in rat; assay type: ADME
[8] = Half life in dog at 0.5 mg/kg, po; assay type: ADME, organism-based, Canis lupus familiaris; design: dose 0.5 mg/kg, route oral; conditions: in vivo
[9] = Plasma protein binding in human; assay type: ADME, cell-free; conditions: read-out: PPB (converted)
[10] = Clearance in dog at 0.5 mg/kg, po; assay type: ADME, organism-based, Canis lupus familiaris; design: dose 0.5 mg/kg, route oral; conditions: in vivo
[11] = Lipophilicity, log D of the compound; assay type: physicochemical; conditions: octanol/water
[12] = Inhibition of Voltage-dependent calcium channel subunit alpha-2/delta

O=C(O)[C@@H]1C[C@H](Oc2cccc(Cl)c2)CN1
half-life [1]: 0.4 h
fraction unbound [2]: 0.19
CL [3]: 41 mL/min/kg
pKa [4]: 8.9
IC50 [5]: 4 nM
bioavailability [6]: 100%

O=C(O)[C@@H]1C[C@H](COc2cccc(Cl)c2)CN1
IC50 [5]: 13 nM

Cl.O=C(O)[C@@H]1C[C@H](Cc2cccc(F)c2)CN1
Kp [7]: 0.004
half-life [1]: 1.6 h
fraction unbound [2]: 0.82
half-life [8]: 26 h
CL [3]: 6 mL/min/kg
pKa [4]: 10.1
fraction unbound [9]: 0.73
IC50 [5]: 17 nM
bioavailability [6]: 89%
CL/F [10]: 0.4 mL/min/kg
logD [11]: 0.1

O=C(O)[C@@H]1C[C@H](OCc2ccc(Cl)cc2)CN1
fraction unbound [2]: 0.65
CL [3]: 26 mL/min/kg
IC50 [5]: 48 nM

O=C(O)[C@@H]1C[C@H](Cc2ccccc2F)CN1
IC50 [5]: 108 nM

O=C(O)[C@@H]1C[C@H](COc2cccc(F)c2)CN1
half-life [1]: 1.4 h
fraction unbound [2]: 0.91
CL [3]: 7 mL/min/kg
fraction unbound [9]: 0.32
IC50 [5]: 25 nM
logD [11]: -0.3

O=C(O)[C@@H]1C[C@H](Cc2ccccc2Cl)CN1
half-life [1]: 0.5 h
fraction unbound [2]: 0.67
CL [3]: 15 mL/min/kg
IC50 [5]: 8 nM
logD [11]: 0.6

O=C(O)[C@@H]1C[C@H](Cc2cc(Cl)ccc2Cl)CN1
IC50 [5]: 5 nM

O=C(O)[C@@H]1C[C@H](Cc2cccc(OC(F)(F)F)c2)CN1
IC50 [5]: 4 nM

CCc1cccc(C[C@@H]2CN[C@H](C(=O)O)C2)c1
IC50 [5]: 27 nM

O=C(O)[C@@H]1C[C@H](Cc2cccc(F)c2F)CN1
IC50 [5]: 27 nM

COc1cccc(C[C@@H]2CN[C@H](C(=O)O)C2)c1
IC50 [5]: 28 nM

O=C(O)[C@@H]1C[C@H](Cc2cc(F)ccc2F)CN1
IC50 [5]: 10 nM

O=C(O)[C@@H]1C[C@H](Cc2ccccc2)CN1
IC50 [5]: 272 nM

O=C(O)[C@H]1C[C@@H](Cc2cccc(F)c2)CN1
IC50 [5]: > 10000 nM

NCC1(CC(=O)O)CCCCC1 [GABAPENTIN]
IC50 [12]: 140 nM

CC(C)C[C@H](CN)CC(=O)O [PREGABALIN]
IC50 [12]: 80 nM
